Test: Agonist activity at vitamin D3 receptor in human HL-60 cells assessed as induction of cell differentiation after 96 hrs by NBT dye-based microscopic analysis
With `CC[C@@H](C)[C@H](NC(=O)c1ccc(C(CC)(CC)c2ccc(OCC(O)C(C)(C)C)c(C)c2)n1CC)C(=O)OC` (stereo partly specified) the EC50 was 0.026 µM.
In the case of `C#CC(C)OC(=O)c1ccc(C(CC)(CC)c2ccc(OCC(=O)C(C)(C)C)c(C)c2)n1CC` (stereo unspecified), the EC50 is reported as 0.21 µM.
With `C#CCCOC(=O)c1ccc(C(CC)(CC)c2ccc(OCC(O)C(C)(C)C)c(C)c2)n1CC` (stereo unspecified) the EC50 was 1.03 µM.
For `CCOC(=O)CN(C)C(=O)c1ccc(C(CC)(CC)c2ccc(OCC(O)C(C)(C)C)c(C)c2)n1CC` (stereo unspecified), the EC50 was 0.21 µM.
Work on `CCN(CC)CCCNC(=O)c1ccc(C(CC)(CC)c2ccc(OCC(=O)C(C)(C)C)c(C)c2)n1CC` yielded an EC50 of 0.022 µM.
`C=CCN(C)C(=O)c1ccc(C(CC)(CC)c2ccc(OCC(=O)C(C)(C)C)c(C)c2)n1CC` gave an EC50 of 21.6 µM.
`CCn1c(C(=O)N[C@@H](C)CO)ccc1C(CC)(CC)c1ccc(OCC(O)C(C)(C)C)c(C)c1` (stereo partly specified) gave an EC50 of 0.0085 µM.
With `CCn1c(C(=O)N(C)CC(=O)O)ccc1C(CC)(CC)c1ccc(OCC(O)C(C)(C)C)c(C)c1` (stereo unspecified) the EC50 was 0.74 µM.
With `CCn1c(C(=O)NCCN)ccc1C(CC)(CC)c1ccc(OCC(O)C(C)(C)C)c(C)c1` (stereo unspecified) the EC50 was 0.01 µM.
With `CCOC(=O)CC(C)OC(=O)c1ccc(C(CC)(CC)c2ccc(OCC(=O)C(C)(C)C)c(C)c2)n1CC` (stereo unspecified) the EC50 was > 50 µM.
`CCn1c(C(=O)NCCCN(C)C)ccc1C(CC)(CC)c1ccc(OCC(=O)C(C)(C)C)c(C)c1` showed an EC50 of 0.096 µM.
Work on `CCn1c(C(=O)NCCCN2CCOCC2)ccc1C(CC)(CC)c1ccc(OCC(O)C(C)(C)C)c(C)c1` (stereo unspecified) yielded an EC50 of 0.018 µM.
`CC[C@@H](C)[C@H](NC(=O)c1ccc(C(CC)(CC)c2ccc(OCC(=O)C(C)(C)C)c(C)c2)n1CC)C(=O)OC` gave an EC50 of 0.59 µM.
`C#CCNC(=O)c1ccc(C(CC)(CC)c2ccc(OCC(O)C(C)(C)C)c(C)c2)n1CC` (stereo unspecified) gave an EC50 of 0.24 µM.
Compound `CC[C@@H](C)[C@H](NC(=O)c1ccc(C(CC)(CC)c2ccc(OCC(O)C(C)(C)C)c(C)c2)n1CC)C(=O)O` (stereo partly specified) has an EC50 of 0.0023 µM.
With `CCOC(=O)c1ccc(OC(=O)c2ccc(C(CC)(CC)c3ccc(OCC(=O)C(C)(C)C)c(C)c3)n2CC)cc1` the EC50 was 45.6 µM.
For `CCOC(=O)c1ccc(OC(=O)c2ccc(C(CC)(CC)c3ccc(OCC(O)C(C)(C)C)c(C)c3)n2CC)cc1` (stereo unspecified), the EC50 was > 50 µM.
With `CCOC(=O)CN(C)C(=O)c1ccc(C(CC)(CC)c2ccc(OCC(=O)C(C)(C)C)c(C)c2)n1CC` the EC50 was > 50 µM.
In the case of `CCn1c(C(=O)N(C)CCC#N)ccc1C(CC)(CC)c1ccc(OCC(=O)C(C)(C)C)c(C)c1`, the EC50 is reported as 9.8 µM.
In the case of `CCn1c(C(=O)OCc2ccc(F)cc2)ccc1C(CC)(CC)c1ccc(OCC(=O)C(C)(C)C)c(C)c1`, the EC50 is reported as 9.5 µM.
For `CCn1c(C(=O)NCCN(C)C)ccc1C(CC)(CC)c1ccc(OCC(O)C(C)(C)C)c(C)c1` (stereo unspecified), the EC50 was 0.014 µM.
With `CCn1c(C(=O)N(CCC#N)CCC#N)ccc1C(CC)(CC)c1ccc(OCC(O)C(C)(C)C)c(C)c1` (stereo unspecified) the EC50 was 0.097 µM.
With `CCn1c(C(=O)NCCBr)ccc1C(CC)(CC)c1ccc(OCC(=O)C(C)(C)C)c(C)c1` the EC50 was 1.9 µM.
For `CCn1c(C(=O)Nc2ccc(OC(F)(F)F)cc2)ccc1C(CC)(CC)c1ccc(OCC(=O)C(C)(C)C)c(C)c1`, the EC50 was > 50 µM.
Work on `CCn1c(C(=O)N(CCC#N)CCC#N)ccc1C(CC)(CC)c1ccc(OCC(=O)C(C)(C)C)c(C)c1` yielded an EC50 of 0.87 µM.
With `CCn1c(C(=O)Oc2ccc(CC(=O)OC)cc2)ccc1C(CC)(CC)c1ccc(OCC(=O)C(C)(C)C)c(C)c1` the EC50 was 2.32 µM.
With `CCN(CC)CCCNC(=O)c1ccc(C(CC)(CC)c2ccc(OCC(O)C(C)(C)C)c(C)c2)n1CC` (stereo unspecified) the EC50 was 0.066 µM.
Compound `CCn1c(C(=O)N(C)CC(=O)O)ccc1C(CC)(CC)c1ccc(OCC(=O)C(C)(C)C)c(C)c1` has an EC50 of 1.39 µM.
For `CCn1c(C(=O)OCc2ccc(F)cc2)ccc1C(CC)(CC)c1ccc(OCC(O)C(C)(C)C)c(C)c1` (stereo unspecified), the EC50 was > 50 µM.
`CCC(CC)(c1ccc(OCC(=O)C(C)(C)C)c(C)c1)c1ccc(OCC(=O)C(C)(C)C)c(C)c1` [LG190155] showed an EC50 of 0.59 µM.
For `CCN(CC)CCNC(=O)c1ccc(C(CC)(CC)c2ccc(OCC(O)C(C)(C)C)c(C)c2)n1CC` (stereo unspecified), the EC50 was 0.11 µM.
For `C#CCNC(=O)c1ccc(C(CC)(CC)c2ccc(OCC(=O)C(C)(C)C)c(C)c2)n1CC`, the EC50 was 2.2 µM.
`CCn1c(C(=O)Oc2ccc(CCO)cc2)ccc1C(CC)(CC)c1ccc(OCC(O)C(C)(C)C)c(C)c1` (stereo unspecified) showed an EC50 of 5.1 µM.
Compound `CCn1c(C(=O)NCCN)ccc1C(CC)(CC)c1ccc(OCC(=O)C(C)(C)C)c(C)c1` has an EC50 of 0.12 µM.
For `C=CCN(C)C(=O)c1ccc(C(CC)(CC)c2ccc(OCC(O)C(C)(C)C)c(C)c2)n1CC` (stereo unspecified), the EC50 was 3.95 µM.
`CCn1c(C(=O)N(C)c2ccccc2)ccc1C(CC)(CC)c1ccc(OCC(=O)C(C)(C)C)c(C)c1` gave an EC50 of 18.5 µM.
In the case of `CCn1c(C(=O)Nc2ccc(OC(F)(F)F)cc2)ccc1C(CC)(CC)c1ccc(OCC(O)C(C)(C)C)c(C)c1` (stereo unspecified), the EC50 is reported as > 50 µM.
For `CCN(CC)CCNC(=O)c1ccc(C(CC)(CC)c2ccc(OCC(=O)C(C)(C)C)c(C)c2)n1CC`, the EC50 was 0.091 µM.
`CCOc1ccc(NC(=O)c2ccc(C(CC)(CC)c3ccc(OCC(O)C(C)(C)C)c(C)c3)n2CC)cc1` (stereo unspecified) showed an EC50 of 0.63 µM.
Work on `CCn1c(C(=O)NCC(OC)OC)ccc1C(CC)(CC)c1ccc(OCC(O)C(C)(C)C)c(C)c1` (stereo unspecified) yielded an EC50 of 0.15 µM.
With `CCn1c(C(=O)N(C)CCC#N)ccc1C(CC)(CC)c1ccc(OCC(O)C(C)(C)C)c(C)c1` (stereo unspecified) the EC50 was 1.96 µM.
With `CCOc1ccc(NC(=O)c2ccc(C(CC)(CC)c3ccc(OCC(=O)C(C)(C)C)c(C)c3)n2CC)cc1` the EC50 was > 50 µM.
With `CCn1c(C(=O)NCCBr)ccc1C(CC)(CC)c1ccc(OCC(O)C(C)(C)C)c(C)c1` (stereo unspecified) the EC50 was 0.13 µM.
With `C#CC(C)OC(=O)c1ccc(C(CC)(CC)c2ccc(OCC(O)C(C)(C)C)c(C)c2)n1CC` (stereo unspecified) the EC50 was 0.2 µM.
Work on `CCn1c(C(=O)NCC(OC)OC)ccc1C(CC)(CC)c1ccc(OCC(=O)C(C)(C)C)c(C)c1` yielded an EC50 of 0.13 µM.
With `CCn1c(C(=O)OCc2ccccn2)ccc1C(CC)(CC)c1ccc(OCC(=O)C(C)(C)C)c(C)c1` the EC50 was > 50 µM.
`CCn1c(C(=O)N(C)c2ccccc2)ccc1C(CC)(CC)c1ccc(OCC(O)C(C)(C)C)c(C)c1` (stereo unspecified) showed an EC50 of 6.4 µM.
Work on `C#CCCOC(=O)c1ccc(C(CC)(CC)c2ccc(OCC(=O)C(C)(C)C)c(C)c2)n1CC` yielded an EC50 of 28.8 µM.
With `CCn1c(C(=O)Nc2cccc(C(F)(F)F)c2)ccc1C(CC)(CC)c1ccc(OCC(=O)C(C)(C)C)c(C)c1` the EC50 was > 50 µM.
For `CCn1c(C(=O)Nc2cccc(C(F)(F)F)c2)ccc1C(CC)(CC)c1ccc(OCC(O)C(C)(C)C)c(C)c1` (stereo unspecified), the EC50 was > 50 µM.
Compound `CC[C@@H](C)[C@H](NC(=O)c1ccc(C(CC)(CC)c2ccc(OCC(=O)C(C)(C)C)c(C)c2)n1CC)C(=O)O` has an EC50 of 0.01 µM.
In the case of `CCn1c(C(=O)OCc2ccccn2)ccc1C(CC)(CC)c1ccc(OCC(O)C(C)(C)C)c(C)c1` (stereo unspecified), the EC50 is reported as > 50 µM.
Work on `CCn1c(C(=O)OC(C)CCO)ccc1C(CC)(CC)c1ccc(OCC(=O)C(C)(C)C)c(C)c1` (stereo unspecified) yielded an EC50 of 0.38 µM.
`CCn1c(C(=O)NCCCN(C)C)ccc1C(CC)(CC)c1ccc(OCC(O)C(C)(C)C)c(C)c1` (stereo unspecified) gave an EC50 of 0.037 µM.
Work on `CCn1c(C(=O)NCCCN2CCOCC2)ccc1C(CC)(CC)c1ccc(OCC(=O)C(C)(C)C)c(C)c1` yielded an EC50 of 0.24 µM.
In the case of `CCn1c(C(=O)NCCN(C)C)ccc1C(CC)(CC)c1ccc(OCC(=O)C(C)(C)C)c(C)c1`, the EC50 is reported as 0.077 µM.

Reference: BindingDB's records for doi:10.1016/j.ejmech.2015.10.042 (China Pharmaceutical University, 2016)
